In the supplement of paper PMC10307832:

Legend:
Experiment in all cases: relative viability (nuclei count vs DMSO), 5 days (fraction); higher = more cells survive
[1] = compound: CNC(=O)c1ccccc1Sc1ccc2c(/C=C/c3ccccn3)n[nH]c2c1 [Axitinib] + Cc1nc(Nc2ncc(C(=O)Nc3c(C)cccc3Cl)s2)cc(N2CCN(CCO)CC2)n1 [Dasatinib] (partner 0.075 µM)
Procedure, shortened: (§1)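 Lung cancer cell lines in 1536-well plates got either a single drug or a fixed anchor-drug dose together with five library-drug doses (not always all listed) in √10 steps, by pin tool, on the day after seeding. Nuclei were counted after 5 days, and relative viability is the treated-to-vehicle ratio of nuclei counts. Values are medians of duplicate plates.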

[2] = compound: CC1=CC=C(C=C1)C(=O)CN2C3=C(CCCC3)SC2=N [Pifithrin_alpha] + CC(C)C[C@H](NC(=O)[C@H](Cc1ccccc1)NC(=O)c1cnccn1)B(O)O [Bortezomib] (partner 0.002 µM)
Procedure, shortened: as §1

[3] = compound: CNC(=O)c1ccccc1Sc1ccc2c(/C=C/c3ccccn3)n[nH]c2c1 [Axitinib] + C[C@@H](Oc1cc(-c2cnn(C3CCNCC3)c2)cnc1N)c1c(Cl)ccc(F)c1Cl [Crizotinib] (partner 1 µM)
Procedure, shortened: as §1

[4] = compound: CNC(=O)c1ccccc1Sc1ccc2c(/C=C/c3ccccn3)n[nH]c2c1 [Axitinib] + CC(C)C[C@H](NC(=O)[C@H](Cc1ccccc1)NC(=O)c1cnccn1)B(O)O [Bortezomib] (partner 0.002 µM)
Procedure, shortened: as §1

RERF-LC-KJ
relative viability ([1]; first compound 0.005 µM): 0.853
relative viability ([1]; first compound 0.01581 µM): 0.898
relative viability ([1]; first compound 0.05 µM): 0.998
relative viability ([1]; first compound 0.1581 µM): 0.822
relative viability ([1]; first compound 0.5 µM): 0.904
relative viability ([2]; first compound 1 µM): 0.798
relative viability ([2]; first compound 3.162 µM): 0.855
relative viability ([2]; first compound 10 µM): 1.07
relative viability ([2]; first compound 31.62 µM): 1
relative viability ([2]; first compound 100 µM): 0.721
relative viability ([3]; first compound 0.005 µM): 0.801
relative viability ([3]; first compound 0.01581 µM): 0.856
relative viability ([3]; first compound 0.05 µM): 0.862
relative viability ([3]; first compound 0.1581 µM): 0.771
relative viability ([3]; first compound 0.5 µM): 0.823
relative viability ([4]; first compound 0.005 µM): 1.12
relative viability ([4]; first compound 0.01581 µM): 1.12
relative viability ([4]; first compound 0.05 µM): 1.02
relative viability ([4]; first compound 0.1581 µM): 1.14
relative viability ([4]; first compound 0.5 µM): 1.19

NCI-H1734
relative viability ([1]; first compound 0.005 µM): 0.515
relative viability ([1]; first compound 0.01581 µM): 0.491
relative viability ([1]; first compound 0.05 µM): 0.507
relative viability ([1]; first compound 0.1581 µM): 0.499
relative viability ([1]; first compound 0.5 µM): 0.446
relative viability ([2]; first compound 1 µM): 1.1
relative viability ([2]; first compound 3.162 µM): 0.928
relative viability ([2]; first compound 10 µM): 0.899
relative viability ([2]; first compound 31.62 µM): 0.7
relative viability ([2]; first compound 100 µM): 0.817
relative viability ([3]; first compound 0.005 µM): 0.683
relative viability ([3]; first compound 0.01581 µM): 0.765
relative viability ([3]; first compound 0.05 µM): 0.679
relative viability ([3]; first compound 0.1581 µM): 0.758
relative viability ([3]; first compound 0.5 µM): 0.868
relative viability ([4]; first compound 0.005 µM): 0.935
relative viability ([4]; first compound 0.01581 µM): 0.974
relative viability ([4]; first compound 0.05 µM): 0.879
relative viability ([4]; first compound 0.1581 µM): 1.01
relative viability ([4]; first compound 0.5 µM): 1.06

NCI-H2087
relative viability ([1]; first compound 0.005 µM): 0.852
relative viability ([1]; first compound 0.01581 µM): 1.01
relative viability ([1]; first compound 0.05 µM): 0.908
relative viability ([1]; first compound 0.1581 µM): 0.837
relative viability ([1]; first compound 0.5 µM): 0.861
relative viability ([2]; first compound 1 µM): 0.733
relative viability ([2]; first compound 3.162 µM): 0.768
relative viability ([2]; first compound 10 µM): 0.941
relative viability ([2]; first compound 31.62 µM): 0.489
relative viability ([2]; first compound 100 µM): 1.02
relative viability ([3]; first compound 0.005 µM): 0.986
relative viability ([3]; first compound 0.01581 µM): 0.912
relative viability ([3]; first compound 0.05 µM): 0.914
relative viability ([3]; first compound 0.1581 µM): 0.767
relative viability ([3]; first compound 0.5 µM): 0.825
relative viability ([4]; first compound 0.005 µM): 0.944
relative viability ([4]; first compound 0.01581 µM): 0.772
relative viability ([4]; first compound 0.05 µM): 0.868
relative viability ([4]; first compound 0.1581 µM): 0.615
relative viability ([4]; first compound 0.5 µM): 1.13

EKVX
relative viability ([1]; first compound 0.005 µM): 0.602
relative viability ([1]; first compound 0.01581 µM): 0.31
relative viability ([1]; first compound 0.05 µM): 0.334
relative viability ([1]; first compound 0.1581 µM): 0.435
relative viability ([1]; first compound 0.5 µM): 0.507
relative viability ([2]; first compound 1 µM): 1.07
relative viability ([2]; first compound 3.162 µM): 0.94
relative viability ([2]; first compound 10 µM): 0.768
relative viability ([2]; first compound 31.62 µM): 0.607
relative viability ([2]; first compound 100 µM): 0.648
relative viability ([3]; first compound 0.005 µM): 1.03
relative viability ([3]; first compound 0.01581 µM): 0.896
relative viability ([3]; first compound 0.05 µM): 0.785
relative viability ([3]; first compound 0.1581 µM): 0.904
relative viability ([3]; first compound 0.5 µM): 0.958
relative viability ([4]; first compound 0.005 µM): 1.13
relative viability ([4]; first compound 0.01581 µM): 1.08
relative viability ([4]; first compound 0.05 µM): 0.98
relative viability ([4]; first compound 0.1581 µM): 1.03
relative viability ([4]; first compound 0.5 µM): 0.997

NCI-H1915
relative viability ([1]; first compound 0.005 µM): 0.307
relative viability ([1]; first compound 0.01581 µM): 0.289
relative viability ([1]; first compound 0.05 µM): 0.315
relative viability ([1]; first compound 0.1581 µM): 0.29
relative viability ([1]; first compound 0.5 µM): 0.252
relative viability ([2]; first compound 1 µM): 0.947
relative viability ([2]; first compound 3.162 µM): 1.15
relative viability ([2]; first compound 10 µM): 0.904
relative viability ([2]; first compound 100 µM): 1.35
relative viability ([3]; first compound 0.005 µM): 0.905
relative viability ([3]; first compound 0.01581 µM): 0.899
relative viability ([3]; first compound 0.05 µM): 0.908
relative viability ([3]; first compound 0.1581 µM): 0.883
relative viability ([3]; first compound 0.5 µM): 0.957
relative viability ([4]; first compound 0.005 µM): 0.921
relative viability ([4]; first compound 0.01581 µM): 0.944
relative viability ([4]; first compound 0.05 µM): 1.05
relative viability ([4]; first compound 0.1581 µM): 0.986
relative viability ([4]; first compound 0.5 µM): 0.976

NCI-H3122
relative viability ([1]; first compound 0.005 µM): 0.881
relative viability ([1]; first compound 0.01581 µM): 0.819
relative viability ([1]; first compound 0.05 µM): 0.895
relative viability ([1]; first compound 0.1581 µM): 0.724
relative viability ([1]; first compound 0.5 µM): 0.735
relative viability ([2]; first compound 1 µM): 1.03
relative viability ([2]; first compound 3.162 µM): 0.99
relative viability ([2]; first compound 10 µM): 1.05
relative viability ([2]; first compound 31.62 µM): 0.904
relative viability ([2]; first compound 100 µM): 1
relative viability ([3]; first compound 0.005 µM): 0.205
relative viability ([3]; first compound 0.01581 µM): 0.276
relative viability ([3]; first compound 0.05 µM): 0.274
relative viability ([3]; first compound 0.1581 µM): 0.314
relative viability ([3]; first compound 0.5 µM): 0.267
relative viability ([4]; first compound 0.005 µM): 0.904
relative viability ([4]; first compound 0.01581 µM): 1.03
relative viability ([4]; first compound 0.05 µM): 1.04
relative viability ([4]; first compound 0.1581 µM): 1.05
relative viability ([4]; first compound 0.5 µM): 1.07

BEN
relative viability ([1]; first compound 0.005 µM): 0.293
relative viability ([1]; first compound 0.01581 µM): 0.264
relative viability ([1]; first compound 0.05 µM): 0.314
relative viability ([1]; first compound 0.1581 µM): 0.365
relative viability ([1]; first compound 0.5 µM): 0.263
relative viability ([2]; first compound 1 µM): 0.47
relative viability ([2]; first compound 3.162 µM): 0.884
relative viability ([2]; first compound 10 µM): 0.914
relative viability ([2]; first compound 31.62 µM): 0.728
relative viability ([2]; first compound 100 µM): 1.04
relative viability ([3]; first compound 0.005 µM): 0.897
relative viability ([3]; first compound 0.01581 µM): 1.04
relative viability ([3]; first compound 0.05 µM): 0.788
relative viability ([3]; first compound 0.1581 µM): 0.807
relative viability ([3]; first compound 0.5 µM): 0.925
relative viability ([4]; first compound 0.005 µM): 0.804
relative viability ([4]; first compound 0.01581 µM): 0.781
relative viability ([4]; first compound 0.05 µM): 0.554
relative viability ([4]; first compound 0.1581 µM): 0.75
relative viability ([4]; first compound 0.5 µM): 0.543

201T
relative viability ([1]; first compound 0.005 µM): 0.557
relative viability ([1]; first compound 0.01581 µM): 0.553
relative viability ([1]; first compound 0.05 µM): 0.567
relative viability ([1]; first compound 0.1581 µM): 0.526
relative viability ([1]; first compound 0.5 µM): 0.562
relative viability ([2]; first compound 1 µM): 1.05
relative viability ([2]; first compound 3.162 µM): 1.07
relative viability ([2]; first compound 10 µM): 1.16
relative viability ([2]; first compound 31.62 µM): 0.794
relative viability ([2]; first compound 100 µM): 0.913
relative viability ([3]; first compound 0.005 µM): 1.06
relative viability ([3]; first compound 0.01581 µM): 1.05
relative viability ([3]; first compound 0.05 µM): 1.05
relative viability ([3]; first compound 0.1581 µM): 1.07
relative viability ([3]; first compound 0.5 µM): 1.02
relative viability ([4]; first compound 0.005 µM): 1.14
relative viability ([4]; first compound 0.01581 µM): 1.08
relative viability ([4]; first compound 0.05 µM): 1.06
relative viability ([4]; first compound 0.1581 µM): 1.07
relative viability ([4]; first compound 0.5 µM): 1.11
